According to US11000525B2, “1-[2-(aminomethyl)benzyl]-2-thioxo-1,2,3,5-tetrahydro-4H-pyrrolo[3,2-d]pyrimidin-4-ones as inhibitors of myeloperoxidase” (AstraZeneca AB, priority 2014, dated 2021):
“Also recorded” adds a separate entry of the source.

Experiments:
[1] = Plasma urate levels in healthy volunteers (clinical trials); format: in vivo, human; conditions: daily dose for 10 days, NCT00914303, FIG. 2
Protocol: Subjects received placebo or the indicated daily dose for 10 days, and the difference in plasma urate levels versus baseline was calculated. Each symbol represents one subject.

[2] = tested on: MPO purified from the human cell line HL60; test: MPO inhibition screen (Test A), ascorbate loss at 260 nm; format: biochemical; conditions: selectivity for MPO over TPO
Protocol: Methods for the determination of MPO inhibitory activity are disclosed in WO 02/090575. The pharmacological activity of compounds disclosed herein was tested in the following screen (Test A) in which the compounds were tested in the presence of ascorbate, which reacts with MPO-derived hypochlorous acid (HOCl) to form dehydro-ascorbate. The loss of ascorbate is followed by measuring absorbance at 260 nm.
Assay buffer: 100 μM diethyl triamine pentaacetic acid (DTPA) in buffer consisting of 10 mM Na2HPO4/NaH2PO4, 3 mM KCl in 140 mM NaCl, pH 7.4.
Enzyme solution: MPO purified from the human cell line HL60, 1.38 nM (final concentration 0.7 nM) and L-ascorbate, 100 μM (final concentration 50 μM) in Assay buffer
Absorbance was measured at 260 nm to obtain a compound blank value. After an additional 10 min, 40 μL of the substrate solution was added and the absorbance at 260 nm was recorded between 4 and 40 min to obtain kinetic readings of enzyme activity.

Structure (SMILES)	Reduction of plasma urate (uric acid) levels versus baseline [1]	IC50 (TPO)/IC50 (MPO) [2]
CC(C)OCCn1c(=S)[nH]c(=O)c2[nH]ccc21 [AZD3241]	dose-dependent reduction of uric acid; also recorded: dose-dependently reduced urate levels	–
O=c1[nH]c(=S)n(Cc2ccccc2CNC2CCC2)c2cc[nH]c12 [Example 10, 1-{2-[(Cyclobutylamino)methyl]benzyl}-2-thioxo-1,2,3,5-tetrahydro-4H-pyrrolo[3,2-d]pyrimidin-4-one]	–	1100
